pIC50: −log10 of the molar value.
Legend:
S. aureus K147 = type: cell-based, Staphylococcus aureus
Excerpt: (§1) The following bacterial strains were utilized: Escherichia coli UB1005 (wt) and its antibiotic supersusceptible derivative DC2 (Clark, 1984); Excherichia coli SC9251 and its polymixin B rasistant mutant pmrA SC9252 (Peterson, et al., 1987) Pseudomonas aeruginosa H187 (wt) (Angus, et al., 1987) and its antibiotic-sensitive derivative H188 (Zimmerman, W, Antimicrob. Agents Chemother. 18: 94-100, 1980); methicillin sensitive Staphylococcus aureus K147 (Kreiswirth, et al., 1983); Staphylococcus aureus SAP0017, a methicillin resistant clinical isolate from Dr. A. Chow (University of British Columia); Bacillus subtilis, an environmental wt lab strain. Enterococcus faecalis are ATCC 29212 cells and Staphylococcus epidermidis was a clinical isolate from Dr. D. Speert (University of British Columbia). Antifungal activity was tested using a clinical lab isolate of Candida albicans. Salmonella typhinurium C57 and C610 (Fields, P.I., et al., Science 243: 1059-1062 (1989) Corynebacterium xerosis was an environmental isolate (University of British Columbia).
(§2) It is now apparent that agar-based assays severely underestimate antifungal activity as well as activity against gram negative microorganisms (Kondejewski, et al., 1996). Consequently, in the studies reported herein, a liquid-broth method was used to measure the antibiotic properties of the peptides. […] Briefly, cells were grown overnight at 37° C. in LB and diluted in the same medium. Serial dilutions of antibiotics were added to the microtitre plates in a volume of 100 μL followed by 10 μL of bacteria to give a final inoculum of 5×10^5 CFU/mL. Plates were incubated at 37° C. overnight and MICs determined as the lowest antibiotic concentration that inhibited growth.
(§3) The results from antimicrobial and hemolytic assays are combined to provide a “Therapeutic Index” (TI) for each peptide with respect to individual microorganisms. As reported herein, the TI is calculated as the hemolytic activity divided by the antimicrobial activity. The TI thus is a measure of specificity of the particular peptide for microbial membranes as opposed to human blood cell membranes. In the present studies, antimicrobial activities are reported as minimum inhibitory concentrations (MIC)—the lowest concentration of peptide (μg/ml) found to inhibit growth of the particular microbe. Hemolytic activity is reported as the concentration of peptide that effected complete lysis of blood cells after four hours. Thus, in the context of the present invention high TI values indicate microbial specificity and relative lack of toxicity.

S. aureus SAP0017 = type: cell-based, Staphylococcus aureus
Excerpt: as §1, §2, §3

S. epidermidis = type: cell-based, Staphylococcus epidermidis
Excerpt: as §1
as §2, with “growth. […]” for “growth.”

C. xeroses = type: cell-based, Corynebacterium xerosis
Excerpt: as §1
as §2, with “growth. […]” for “growth.”

B. subtilis = type: cell-based, Bacillus subtilis
Excerpt: as §1
as §2, with “growth. […]” for “growth.”

E. faecalis = type: cell-based, Enterococcus faecalis
Excerpt: as §1
as §2, with “growth. […]” for “growth.”

C. Albicans = type: cell-based, Candida albicans
Excerpt: as §1
as §2, with “growth. […]” for “growth.”

S. typhinurium C610 = type: cell-based, Salmonella typhinurium
Excerpt: as §1
as §2, with “growth. […]” for “growth.”

S. typhinurium C587 = type: cell-based, Salmonella typhinurium
Excerpt: as §1
as §2, with “growth. […]” for “growth.”

P. aeruginosa H188 = type: cell-based, Pseudomonas aeruginosa; details: H188
Excerpt: as §1
as §2, with “growth. […]” for “growth.”

E. coli DC2 = type: cell-based, Escherichia coli; details: DC2
Excerpt: as §1, §2, §3

[1] = Displacement of dansyl-polymyxin from LPS; type: binding, P. aeruginosa; details: read-out: LPS binding affinity: peptide concentration to displace 50% of dansyl-polymyxin B from LPS; Tables 1, 4, 7
Excerpt: In order to determine whether ring size affects the interaction between the peptide and bacterial membranes, we studied the interaction between the GS ring analogs and bacterial lipopolysaccharide (LPS). It has been shown previously that dansyl-polymixin (DPX) is a good probe for cationic binding sites on both purified LPS as well as whole bacterial cells (Example 8; Moore, et al., 1986; Sawyer, et al., 1988; Hancock, 1981). […] The LPS binding activity of various GS analogs was investigated, as discussed above.
Dansyl-polymixin (DPX) displacement from P. aeruginosa LPS was measured as described (Moore, et al., 1986). Briefly, peptides were titrated into cuvettes containing 3 μg of LPS per mL and 2.5 μM dansyl-polymixin (approximately 90% saturation of LPS binding sites) in 1 mL of 5 mM sodium HEPES buffer, pH 7.0, and the decrease in fluorescence recorded. A plot of the inverse of the percent inhibition as a function of the inverse of inhibitor concentration gave a value for I50, the inhibitor concentration resulting in 50% displacement of dansyl-polymixin from LPS (−1/× intercept).

P. aeruginosa H187 = type: cell-based, Pseudomonas aeruginosa; details: H187
Excerpt: as §1, §2, §3

E. coli UB1005 = type: cell-based, Escherichia coli; details: UB1005
Excerpt: as §1
as §2, with “growth. […]” for “growth.”

## CC(C)C[C@@H]1NC(=O)[C@H](CCCCN)NC(=O)[C@H](C(C)C)NC(=O)[C@H](CCCCN)NC(=O)[C@H](CC(C)C)NC(=O)[C@@H]2CCCN2C(=O)[C@@H](Cc2ccc(O)cc2)NC(=O)[C@H](C(C)C)NC(=O)[C@H](CCCCN)NC(=O)[C@H](CC(C)C)NC(=O)[C@@H](CCCCN)NC(=O)[C@H](C(C)C)NC(=O)[C@@H]2CCCN2C(=O)[C@@H](Cc2ccc(O)cc2)NC1=O [GS14K2]
S. aureus K147
  Minimum Inhibitory Concentration (activity): 100 µg/mL
S. aureus SAP0017
  Minimum Inhibitory Concentration (activity): 50 µg/mL
S. epidermidis
  Minimum Inhibitory Concentration (activity): 6.2 µg/mL
C. xeroses
  Minimum Inhibitory Concentration (activity): 0.8 µg/mL
B. subtilis
  Minimum Inhibitory Concentration (activity): 50 µg/mL
E. faecalis
  Minimum Inhibitory Concentration (activity): 1.5 µg/mL
C. Albicans
  Minimum Inhibitory Concentration (activity): 6.2 µg/mL
S. typhinurium C610
  Minimum Inhibitory Concentration (activity): 3 µg/mL
S. typhinurium C587
  Minimum Inhibitory Concentration (activity): 25 µg/mL
P. aeruginosa H188
  Minimum Inhibitory Concentration (activity): 62 µg/mL
E. coli DC2
  Minimum Inhibitory Concentration (activity): 3.1 µg/mL
[1]
  pIC50: 4.30
P. aeruginosa H187
  Minimum Inhibitory Concentration (activity): 75 µg/mL

## CC(C)C[C@@H]1NC(=O)[C@H](CCCCN)NC(=O)[C@H](C(C)C)NC(=O)[C@@H]2CCCN2C(=O)[C@@H](Cc2ccc(O)cc2)NC(=O)[C@H](CC(C)C)NC(=O)[C@H](CCCCN)NC(=O)[C@H](C(C)C)NC(=O)[C@@H](CCCCN)NC(=O)[C@H](CC(C)C)NC(=O)[C@@H]2CCCN2C(=O)[C@@H](Cc2ccc(O)cc2)NC(=O)[C@H](C(C)C)NC(=O)[C@H](CCCCN)NC1=O [GS14K9]
S. aureus K147
  Minimum Inhibitory Concentration (activity): 50 µg/mL
S. aureus SAP0017
  Minimum Inhibitory Concentration (activity): 25 µg/mL
S. epidermidis
  Minimum Inhibitory Concentration (activity): 6.2 µg/mL
C. xeroses
  Minimum Inhibitory Concentration (activity): 1.5 µg/mL
B. subtilis
  Minimum Inhibitory Concentration (activity): 25 µg/mL
E. faecalis
  Minimum Inhibitory Concentration (activity): 1.5 µg/mL
C. Albicans
  Minimum Inhibitory Concentration (activity): 6.2 µg/mL
S. typhinurium C610
  Minimum Inhibitory Concentration (activity): 6.2 µg/mL
S. typhinurium C587
  Minimum Inhibitory Concentration (activity): 17 µg/mL
P. aeruginosa H188
  Minimum Inhibitory Concentration (activity): 62 µg/mL
E. coli DC2
  Minimum Inhibitory Concentration (activity): 3.1 µg/mL
[1]
  pIC50: 4.22
P. aeruginosa H187
  Minimum Inhibitory Concentration (activity): 50 µg/mL

## CC(C)C[C@@H]1NC(=O)[C@H](CCCCN)NC(=O)[C@H](C(C)C)NC(=O)[C@H](CCCCN)NC(=O)[C@H](CC(C)C)NC(=O)[C@@H]2CCCN2C(=O)[C@@H](Cc2ccc(O)cc2)NC(=O)[C@H](C(C)C)NC(=O)[C@H](CCCCN)NC(=O)[C@@H](CC(C)C)NC(=O)[C@H](CCCCN)NC(=O)[C@H](C(C)C)NC(=O)[C@@H]2CCCN2C(=O)[C@@H](Cc2ccc(O)cc2)NC1=O [GS14L3]
S. aureus K147
  Minimum Inhibitory Concentration (activity): >200 µg/mL
S. aureus SAP0017
  Minimum Inhibitory Concentration (activity): 200 µg/mL
S. epidermidis
  Minimum Inhibitory Concentration (activity): 50 µg/mL
C. xeroses
  Minimum Inhibitory Concentration (activity): 0.8 µg/mL
B. subtilis
  Minimum Inhibitory Concentration (activity): >200 µg/mL
E. coli UB1005
  Minimum Inhibitory Concentration (activity): 200 µg/mL
E. faecalis
  Minimum Inhibitory Concentration (activity): 0.8 µg/mL
C. Albicans
  Minimum Inhibitory Concentration (activity): 100 µg/mL
S. typhinurium C610
  Minimum Inhibitory Concentration (activity): >200 µg/mL
S. typhinurium C587
  Minimum Inhibitory Concentration (activity): >200 µg/mL
P. aeruginosa H188
  Minimum Inhibitory Concentration (activity): 200 µg/mL
E. coli DC2
  Minimum Inhibitory Concentration (activity): 50 µg/mL
[1]
  pIC50: 4.46
P. aeruginosa H187
  Minimum Inhibitory Concentration (activity): >200 µg/mL

## CC(C)C[C@@H]1NC(=O)[C@H](CCCCN)NC(=O)[C@H](C(C)C)NC(=O)[C@@H]2CCCN2C(=O)[C@@H](Cc2ccc(O)cc2)NC(=O)[C@@H](CC(C)C)NC(=O)[C@H](CCCCN)NC(=O)[C@H](C(C)C)NC(=O)[C@H](CCCCN)NC(=O)[C@H](CC(C)C)NC(=O)[C@@H]2CCCN2C(=O)[C@@H](Cc2ccc(O)cc2)NC(=O)[C@H](C(C)C)NC(=O)[C@H](CCCCN)NC1=O [GS14L12]
S. aureus K147
  Minimum Inhibitory Concentration (activity): 100 µg/mL
S. aureus SAP0017
  Minimum Inhibitory Concentration (activity): 50 µg/mL
S. epidermidis
  Minimum Inhibitory Concentration (activity): 3.1 µg/mL
C. xeroses
  Minimum Inhibitory Concentration (activity): 3.1 µg/mL
B. subtilis
  Minimum Inhibitory Concentration (activity): 200 µg/mL
E. coli UB1005
  Minimum Inhibitory Concentration (activity): 17 µg/mL
E. faecalis
  Minimum Inhibitory Concentration (activity): 0.8 µg/mL
C. Albicans
  Minimum Inhibitory Concentration (activity): 9 µg/mL
S. typhinurium C610
  Minimum Inhibitory Concentration (activity): 50 µg/mL
S. typhinurium C587
  Minimum Inhibitory Concentration (activity): 150 µg/mL
E. coli DC2
  Minimum Inhibitory Concentration (activity): 3.1 µg/mL
[1]
  pIC50: 4.49
P. aeruginosa H187
  Minimum Inhibitory Concentration (activity): 200 µg/mL

## CC(C)C[C@@H]1NC(=O)[C@H](CCCCN)NC(=O)[C@H](C(C)C)NC(=O)[C@@H]2CCCN2C(=O)[C@@H](Cc2ccc(O)cc2)NC(=O)[C@H](CC(C)C)NC(=O)[C@H](CCCCN)NC(=O)[C@H](C(C)C)NC(=O)[C@H](CCCCN)NC(=O)[C@H](CC(C)C)NC(=O)[C@H]2CCCN2C(=O)[C@@H](Cc2ccc(O)cc2)NC(=O)[C@H](C(C)C)NC(=O)[C@H](CCCCN)NC1=O [GS14P7]
S. aureus K147
  Minimum Inhibitory Concentration (activity): >200 µg/mL
S. aureus SAP0017
  Minimum Inhibitory Concentration (activity): >200 µg/mL
S. epidermidis
  Minimum Inhibitory Concentration (activity): 6.2 µg/mL
C. xeroses
  Minimum Inhibitory Concentration (activity): 1 µg/mL
B. subtilis
  Minimum Inhibitory Concentration (activity): >200 µg/mL
E. coli UB1005
  Minimum Inhibitory Concentration (activity): 200 µg/mL
E. faecalis
  Minimum Inhibitory Concentration (activity): 6.2 µg/mL
C. Albicans
  Minimum Inhibitory Concentration (activity): 25 µg/mL
S. typhinurium C610
  Minimum Inhibitory Concentration (activity): 200 µg/mL
S. typhinurium C587
  Minimum Inhibitory Concentration (activity): >200 µg/mL
P. aeruginosa H188
  Minimum Inhibitory Concentration (activity): 100 µg/mL
E. coli DC2
  Minimum Inhibitory Concentration (activity): 6.2 µg/mL
[1]
  pIC50: 4.74
P. aeruginosa H187
  Minimum Inhibitory Concentration (activity): 200 µg/mL

— patent US6358921B1, “Antimicrobial peptide compositions and method” (priority 1996, dated 2002)
